The experiment concerns the target T1, CB1 receptor (HEK293 CB1 β-arrestin cells) (Homo sapiens, UniProt P21554).
T1 construct: host or cells: HEK293 CB1 β-arrestin cells (PathHunter)
Put plainly: PathHunter β-Arrestin assay, enhancement of anandamide stimulation. The class given is cell-based. The conditions noted are these: maximum % increase in stimulation caused by anandamide; for Potency % Enhancement 1000 nM: 1000 nM test compound; for Potency % Enhancement 300 nM: 300 nM test compound; for Potency % Enhancement 100 nM: 100 nM test compound. From the text: PathHunter™ β-Arrestin Assays
β-Arrestins are multifunctional intracellular proteins that interact with a structurally diverse group of cell surface receptors including GPCRs, to regulate cellular functions (see, e.g., Violin and Lefkowitz, 2007).
PathHunter™ enzyme fragment complementation is the most important method to measure β-arrestin recruitment. PathHunter™ β-Arrestin assays developed by DiscoveRX are revolutionary high-throughput screening assays for monitoring GPCR activation following ligand stimulation, without an imaging instrument, fluorescent protein tag, or radioactivity.
Instead, the assays detect GPCR activation through binding of β-arrestin to the expressed GPCR of interest, and measure the interaction of the two proteins using enzyme fragment complementation (EFC). The EFC approach offers a range of benefits for screening; including signal amplification and robust performance.
The larger portion of β-gal, termed EA for enzyme acceptor, is fused to the C-terminus of β-arrestin. The smaller, complementing fragment of β-gal, the ProLink™ tag, is expressed as a fusion protein with the GPCR of interest at the C-terminus. Upon activation, the GPCR is bound by β-arrestin. The interaction of β-arrestin and the GPCR forces the interaction of ProLink and EA, thus allowing complementation of the two fragments of β-gal and the formation of a functional enzyme capable of hydrolyzing substrate and generating a […] signal.
Using the PathHunter™ CB1 kit from DiscoveRX, a cannabinoid CB1 receptor agonist is added and activates the receptor, EA, which is fused to the C-terminus of β-arrestin, and then interacts with the ProLink™ tag which is fused to the CB1 receptor. This will result in the […] signal that is recorded by a luminescence plate reader. The […] signal is directly related to the activation of the receptor, therefore a higher concentration of agonist will yield a larger […] signal. The cannabinoid agonist is added in increasing concentrations to obtain an agonist dose response curve. With pre-incubation of a potential allosteric modulator, either an enhancement of agonist signalling with an allosteric enhancer or a decrease in the maximal response of the agonist with an allosteric inhibitor is expected.
All raw data are obtained as luminescence (relative light units), and are normalised and presented as a percentage of the maximal response for the endogenous cannabinoid CB1 receptor agonist anandamide (N-arachidonoylethanolamine).
The PathHunter™ β-Arrestin assay (from DiscoveRX, Fremont, USA) was performed as follows. HEK293 CB1 β-arrestin cells were plated 48 hours before use and incubated at 37° C., 5% CO2 in a humidified incubator. Test compounds were dissolved in dimethylsulfoxide (DMSO) and diluted in optimized cell culture media (OCC, as supplied by DiscoveRX) media to the required concentrations. 5 μL of test compound or vehicle solution was added to each well and incubated for 60 minutes at 37° C., 5% CO2 in a humidified incubator. 5 μL of increasing concentrations of anandamide was added to each well followed by a 90 minute incubation at 37° C., 5% CO2 in a humidified incubator. 55 μL of detection reagent (as supplied by DiscoveRX) was then added, followed by a further 90 minute incubation at room temperature in the dark. Chemiluminescence, reported in relative light units (RLU—a dimensionless value, standardised as a % of maximum stimulation with anandamide), was measured on a standard luminescence plate reader.
Data were plotted as % of maximal stimulation (Emax) caused by agonist versus the logarithm of concentration of agonist, in the presence or absence of a fixed concentration of test compound (modulator) or vehicle. For example, stimulation in the presence of agonist alone will give a value for stimulation expressed in RLU, which can be expressed as a range from 0% (at lowest agonist concentration, e.g., 1 nM) to 100% (at the highest agonist concentration, e.g., 10 μM). […]

T1 sequence (P21554 whole entry): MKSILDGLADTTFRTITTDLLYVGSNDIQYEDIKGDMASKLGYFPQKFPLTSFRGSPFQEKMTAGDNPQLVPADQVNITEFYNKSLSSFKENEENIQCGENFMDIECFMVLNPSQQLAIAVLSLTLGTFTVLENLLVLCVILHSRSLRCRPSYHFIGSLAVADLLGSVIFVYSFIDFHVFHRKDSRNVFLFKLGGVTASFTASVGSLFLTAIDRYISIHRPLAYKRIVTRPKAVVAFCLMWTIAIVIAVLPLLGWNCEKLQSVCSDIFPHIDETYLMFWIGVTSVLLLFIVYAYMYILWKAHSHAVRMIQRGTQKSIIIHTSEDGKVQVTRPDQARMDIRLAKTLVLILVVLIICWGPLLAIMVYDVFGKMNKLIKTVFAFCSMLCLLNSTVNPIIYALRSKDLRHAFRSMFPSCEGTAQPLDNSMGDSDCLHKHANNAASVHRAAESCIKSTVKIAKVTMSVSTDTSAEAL

For `O=C(O)CC(c1ccccc1)c1c(-c2ccccc2)[nH]c2ccc(Cl)cc12` (centres unmarked) [ABD1003], the “Potency % Enhancement 1000 nM” value came to 0%.

Regarding `CS(=O)(=O)NCC(c1ccccc1)c1c(-c2ccccc2)[nH]c2ccccc12` (centres unmarked) [ABD1009], the “Potency % Enhancement 1000 nM” value came out at 0%.

For the compound `NCC(c1ccccc1)c1c(-c2ccccc2)[nH]c2ccccc12` (centres unmarked) [ABD1009a], the “Potency % Enhancement 1000 nM” value was found to be 0%.

For `NC(=O)NCC(c1ccccc1)c1c(-c2ccccc2)[nH]c2ccccc12` (centres unmarked) [ABD1011], the “Potency % Enhancement 1000 nM” value was found to be 0%.

`c1ccc(-c2[nH]c3ccccc3c2-n2nnnc2-c2ccccc2)cc1` [ABD1077]: the “Potency % Enhancement 1000 nM” value is given as 0%.

Turning to `c1ccc(-c2[nH]c3ccccc3c2-c2nnnn2-c2ccccc2)cc1` [ABD1078], the “Potency % Enhancement 1000 nM” value was found to be 0%.

As for `CS(=O)(=O)NC(c1ccccc1)c1c(-c2ccccc2)[nH]c2ccccc12` (centres unmarked) [ABD1097], the “Potency % Enhancement 1000 nM” value is 0%.

For `O=S(=O)(NC(c1ccccc1)c1c(-c2ccccc2)[nH]c2ccccc12)c1ccccc1` (centres unmarked) [ABD1098], the “Potency % Enhancement 1000 nM” value came out at 0%.

With `N#CC(C#N)C(c1ccccc1)c1c(-c2ccccc2)[nH]c2ccccc12` (centres unmarked) [ABD1100, 2-(Phenyl(2-phenyl-1H-indol-3-yl)methyl)malononitrile], the “Potency % Enhancement 300 nM” value amounted to 0% and the “Potency % Enhancement 1000 nM” value was 19.6%.

On to `O=C(O)CC(c1ccccc1)c1c(-c2ccccc2)[nH]c2ccccc12` (centres unmarked) [ABD1101a], for which the “Potency % Enhancement 1000 nM” value worked out at 0%.

On to `N#CCC(c1ccccc1)c1c(-c2ccccc2)[nH]c2ccccc12` (centres unmarked) [ABD1102, 3-Phenyl-3-(2-phenyl-1H-indol-3-yl)propanenitrile], for which the “Potency % Enhancement 300 nM” value was 0% and the “Potency % Enhancement 1000 nM” value was determined as 21.9%.

For the compound `NC(=O)CC(c1ccccc1)c1c(-c2ccccc2)[nH]c2ccccc12` (centres unmarked) [ABD1105], the “Potency % Enhancement 1000 nM” value worked out at 0%.

Turning to `CNC(=O)CC(c1ccccc1)c1c(-c2ccccc2)[nH]c2ccccc12` (centres unmarked) [ABD1106], the “Potency % Enhancement 1000 nM” value came out at 0%.

Turning to `c1ccc(-c2[nH]c3ccccc3c2C(Cn2ccnn2)c2ccccc2)cc1` (centres unmarked) [ABD1117], the “Potency % Enhancement 1000 nM” value was determined as 0%.

As to `NNC(=O)CC(c1ccccc1)c1c(-c2ccccc2)[nH]c2ccccc12` (centres unmarked) [ABD1131], the “Potency % Enhancement 1000 nM” value is reported as 0%.

In the case of `Cc1ccc2c(C(CC#N)c3ccccc3)c(-c3ccccc3)[nH]c2c1` (centres unmarked) [ABD1132, 3-(6-Methyl-2-phenyl-1H-indol-3-yl)-3-phenylpropanenitrile], the “Potency % Enhancement 300 nM” value was 21.6% and the “Potency % Enhancement 1000 nM” value stood at 80.6%.

As to `Cc1ccc2c(C(c3ccccc3)C(C#N)C#N)c(-c3ccccc3)[nH]c2c1` (centres unmarked) [ABD1133, 2-((6-Methyl-2-phenyl-1H-indol-3-yl)(phenyl)methyl)malononitrile], the “Potency % Enhancement 300 nM” value was 68.7% and the “Potency % Enhancement 1000 nM” value came to 40.4%.

As for `FC(F)(F)CC(c1ccccc1)c1c(-c2ccccc2)[nH]c2ccccc12` (centres unmarked) [ABD1137, 2-Phenyl-3-(3,3,3-trifluoro-1-phenylpropyl)-1H-indole], the “Potency % Enhancement 300 nM” value is listed as 0% and the “Potency % Enhancement 1000 nM” value was 20.7%.

Consider `O=C(C(c1ccccc1)c1c(-c2ccccc2)[nH]c2ccccc12)C(F)(F)F` (centres unmarked) [ABD1139, 1,1,1-Trifluoro-3-phenyl-3-(2-phenyl-1H-indol-3-yl)propan-2-one], for which the “Potency % Enhancement 300 nM” value came out at 0% and the “Potency % Enhancement 1000 nM” value worked out at 18.6%.

Regarding `Cc1ccc2c(C(CC(F)(F)F)c3ccccc3)c(-c3ccccc3)[nH]c2c1` (centres unmarked) [ABD1145, 6-Methyl-2-phenyl-3-(3,3,3-trifluoro-1-phenylpropyl)-1H-indole], the “Potency % Enhancement 100 nM” value came to 45.5% and the “Potency % Enhancement 1000 nM” value was 61.9%.

As to `Cc1ccc2c(C(C(=O)C(F)(F)F)c3ccccc3)c(-c3ccccc3)[nH]c2c1` (centres unmarked) [ABD1146, 1,1,1-Trifluoro-3-(6-methyl-2-phenyl-1H-indol-3-yl)-3-phenylpropan-2-one], the “Potency % Enhancement 100 nM” value was determined as 34.0% and the “Potency % Enhancement 1000 nM” value is listed as 81.0%.

For the origin of these results see patent publication US10377711B2, “Cannabinoid type 1 receptor modulators” (priority 2014, dated 2019).
